Converted amounts (≈) assume the structure as drawn. Like-named read-outs stand apart in the source and are kept apart here.
Assays:
A. baumannii = A. baumannii efflux chequerboard assay; type: cell-based, Acinetobacter baumannii; settings: for MIC: Acinetobacter baumannii
Protocol: Checkerboard assays were performed by preparing two separate 2-fold dilution series of compounds in two 96 well plates, one horizontally, one vertically. […] Plates were incubated at 37 C for 20 h and the absorbance (OD600) was read on a CLARIOstar spectrophotometer (BMG Labtech). The fractional inhibitory concentration was calculated as follows: ΣFIC = [(MIC of A in combination)/(MIC of A alone)] + [(MIC of B in combination)/(MIC of B alone)].

S. aureus = assay: MIC (microbroth dilution); type: cell-based, Staphylococcus aureus; settings: Staphylococcus aureus
Protocol: All bacteria were maintained on tryptic soy agar (TSA), except Streptococcus spp., which were maintained on Columbia agar plates containing 5% horse blood. […] Bacteria were grown to stationary phase in liquid culture overnight, with shaking at 200 rpm, before being back diluted to the relevant starting concentration for each assay below. MICs were measured by the microbroth dilution method. […] Absorbance at OD600 was read on a CLARIOstar spectrophotometer (BMG Labtech) and the MIC was defined as the minimum concentration of compound where no visible growth was detected. […] MICs were also performed in the presence of the outer membrane permeator, polymyxin b nonapeptide (PMBN) following the same MIC method but with the following variation. The 2-fold dilution series of compound was prepared as above, then 50 μL of PMBN at a final concentration of 30 μg/mL was added to relevant wells, while 50 μL/well of blank media was added to the remaining wells. Bacteria were then added at 50 μL/well for a starting concentration as above. […] The MICs were read and defined as above. All animal procedures were performed by the contract research organization Pharmacology Discovery Services Taiwan in accordance with the Guide for the Care and Use of Laboratory Animals. The procedures were approved by the Institutional Ethics Committee of Pharmacology Discovery Services Taiwan, Ltd. (approval no. AB127662), in compliance with animal welfare legislation in Taiwan.

[1] = ATCC9144, ATCC 9144, read-out: MIC
[2] = NCTC13277, NCTC 13277, read-out: MIC
[3] = NCTC13616, NCTC 13616, read-out: MIC

| Compound | MIC (S. aureus; [1]) [µg/mL] | MIC (S. aureus; [2]) [µg/mL] | MIC (S. aureus; [3]) [µg/mL] | also measured |
| --- | --- | --- | --- | --- |
| O=C(N[C@H](CO)[C@H](O)c1ccc([N+](=O)[O-])cc1)C(Cl)Cl [Chloramphenicol] | – | – | – | MIC +50 (0.25x MIC) (A. baumannii; A. baumannii ATCC 17978): 60 µg/mL; MIC +50 (0.5x MIC) (A. baumannii; A. baumannii ATCC 17978): 56 µg/mL; MIC +50 (0.25x MIC) (A. baumannii; A. baumannii AYE): 120 µg/mL; MIC +50 (0.5x MIC) (A. baumannii; A. baumannii AYE): 224 µg/mL; MIC (A. baumannii; ATCC17978, read-out: MIC alone): 64 µg/mL; MIC (A. baumannii; read-out: MIC alone): 128 µg/mL |
| CC(C)(O/N=C(\C(=O)N[C@@H]1C(=O)N2C(C(=O)[O-])=C(C[n+]3ccccc3)CS[C@H]12)c1csc(N)n1)C(=O)O [Ceftazidime] | – | – | – | MIC +50 (0.25x MIC) (A. baumannii; A. baumannii ATCC 17978): 0.94 to 3.76 µg/mL; MIC +50 (0.5x MIC) (A. baumannii; A. baumannii ATCC 17978): 0.003 to 0.438 µg/mL; MIC +50 (0.25x MIC) (A. baumannii; A. baumannii AYE): >1,024 μg/mL; MIC +50 (0.5x MIC) (A. baumannii; A. baumannii AYE): 3.76 to 224 µg/mL; MIC (A. baumannii; ATCC17978, A. baumannii ATCC 17978, read-out: MIC alone): 4 to 16 µg/mL; MIC (A. baumannii; A. baumannii AYE, read-out: MIC alone): > 1020 µg/mL |
| Colistin | – | – | – | MIC +50 (0.25x MIC) (A. baumannii; A. baumannii ATCC 17978): 0.015 to 0.123 µg/mL; MIC +50 (0.5x MIC) (A. baumannii; A. baumannii ATCC 17978): 0.0017 to 0.015 µg/mL; MIC alone (A. baumannii; A. baumannii ATCC 17978): 0.25 µg/mL; MIC +50 (0.25x MIC) (A. baumannii; A. baumannii AYE): 0.015 µg/mL; MIC +50 (0.5x MIC) (A. baumannii; A. baumannii AYE): 0.003 to 0.007 µg/mL; MIC alone (A. baumannii; A. baumannii AYE): 0.25 to 0.5 µg/mL |
| CCn1cc(C(=O)O)c(=O)c2cc(F)c(N3CCNCC3)nc21 [Compound 3, enoxacin, reference compound] | 2 (≈ 6.24 µM) | 128 (≈ 400 µM) | > 128 | – |
| Cc1cc(N[C@@H]2CCN(c3c(F)cc4c(=O)c(C(=O)O)cn5c4c3OC[C@@H]5C)C2)ncn1 [Compound 49, (S)-9-Fluoro-3-methyl-10-((R)-3-((6-methylpyrimidin-4-yl)amino)pyrrolidin-1-yl)-7-oxo-2,3-dihydro-7H-[1,4]oxazino[2,3,4-ij]quinoline-6-carboxylic acid] | 0.016 (≈ 0.0364 µM) | 0.5 (≈ 1.14 µM) | 0.25 (≈ 0.569 µM) | MIC (S. aureus; SA-1199, read-out: MIC): 0.016 µg/mL (≈ 0.0364 µM); MIC (S. aureus; SA-1199B (NorA-overexpressing)): 0.016 µg/mL (≈ 0.0364 µM) |
| O=C(O)c1cn(C2CC2)c2cc(N3CCN(Cc4ccc(-c5ccccc5)cc4)CC3)c(F)cc2c1=O [Compound 39, 7-(4-([1,1’-Biphenyl]-4-ylmethyl)piperazin-1-yl)-1-cyclopropyl-6-fluoro-4-oxo-1,4-dihydroquinoline-3-carboxylic acid] | 1 (≈ 2.01 µM) | 2 (≈ 4.02 µM) | 2 (≈ 4.02 µM) | – |
| C[C@H]1COc2c(N3CC[C@@H](Nc4ncc(F)cn4)C3)c(F)cc3c(=O)c(C(=O)O)cn1c23 [Compound 47, (S)-9-Fluoro-10-((R)-3-((5-fluoropyrimidin-2-yl)amino)pyrrolidin-1-yl)-3-methyl-7-oxo-2,3-dihydro-7H-[1,4]oxazino[2,3,4-ij]quinoline-6-carboxylic acid] | ≤ 0.125 | 1 (≈ 2.26 µM) | 0.5 (≈ 1.13 µM) | – |
| CCn1cc(C(=O)O)c(=O)c2cc(F)c(N3CCN(Cc4ccccc4)CC3)cc21 [Compound 26, 7-(4-Benzylpiperazin-1-yl)-1-ethyl-6-fluoro-4-oxo-1,4-dihydroquinoline-3-carboxylic acid] | 0.25 (≈ 0.611 µM) | 16 to 32 (≈ 39.1 to 78.2 µM) | 16 (≈ 39.1 µM) | – |
| CCn1cc(C(=O)O)c(=O)c2cc(F)c(N3CCN(Cc4ccc(N(C)C)cc4)CC3)cc21 [Compound 32, 7-(4-(4-(Dimethylamino)benzyl)piperazin-1-yl)-1-ethyl-6-fluoro-4-oxo-1,4-dihydroquinoline-3-carboxylic acid] | 0.125 to 0.25 (≈ 0.276 to 0.552 µM) | > 32 | 16 to 32 (≈ 35.4 to 70.7 µM) | – |
| O=C(O)c1cn(C2CC2)c2cc(N3CCN(Cc4cccc5cccnc45)CC3)c(F)cc2c1=O [Compound 27, 1-Cyclopropyl-6-fluoro-4-oxo-7-(4-(quinolin-8-ylmethyl)piperazin-1-yl)-1,4-dihydroquinoline-3-carboxylic acid] | 0.5 (≈ 1.06 µM) | 128 (≈ 271 µM) | 64 (≈ 135 µM) | MIC (S. aureus; SA-1199, read-out: MIC): 0.125 µg/mL (≈ 0.265 µM); MIC (S. aureus; SA-1199B (NorA-overexpressing)): 0.25 µg/mL (≈ 0.529 µM) |
| CCn1cc(C(=O)O)c(=O)c2cc(F)c(N3CCN(Cc4ccc(F)c5ccccc45)CC3)cc21 [Compound 36, 1-Ethyl-6-fluoro-7-(4-((4-fluoronaphthalen-1-yl)methyl)piperazin-1-yl)-4-oxo-1,4-dihydroquinoline-3-carboxylic acid] | 8 (≈ 16.8 µM) | 8 (≈ 16.8 µM) | 8 (≈ 16.8 µM) | – |

Reference: publication PMC13266999, “Designing Antibiotics with Inherent Resistance to Efflux as a Strategy to Revive Discovery against Multidrug-Resistant Pathogens” (Journal of Medicinal Chemistry, 2026)
